# Data taken from US6803226B2, “Method of forming an artificial Shiro of Matsutake” (The University of Tokyo, priority 2001, dated 2004).
# Test system: Matsutake hyphae (strain Tm 89)
# Assay: Growth of Matsutake hyphae in soil containing Tween 80 additive, determined by ergosterol amount
# Assay type: cell-based, Tricholoma Matsutake
# Settings: Tween 80 additive 1, 2 or 5 wt % vs 0 wt %, 20 wt % of soil, one month incubation at 25±1° C. in the dark, FIG. 1
# Experimental: The culture substrate containing an active principle prepared as described above is put into a sterile container (a Petri-dish, etc.). A hypha solution containing Matsutake hyphae is inoculated into the culture substrate in the sterile container such that the hypha solution is spread throughout the culture substrate. Culture of Matsutake hyphae can be performed at 25±1° C. in the dark. After 1 to 3 month's culture of Matsutake hyphae, a piece of the grown hyphae (i.e., a Shiro) are taken as a sample, and the growth amount of the hyphae is determined based on the amount of ergosterol. Ergosterol can be quantified as follows. After a sample of a Shiro is freeze-dried (EYELA, FDU-830), 1 g of the sample is taken and extracted with 2.5 mL of ethanol (99.5%). The obtained extract is loaded into HPLC (high-performance liquid chromatography; HITACHI, Column L-7300; UV Detector L-7400; Autosampler L-7200; Pump L-7100; Integrator D-7500) to quantify the amount of ergosterol in the extract. With respect to the details of the quantification procedure, reference should be made to Martin et al. (1990) Mycol. Res. 94: 1059-1064. About one week after the initiation of the culture, it is observed that the hyphae are grown on the surface of the culture substrate. About 4 weeks after the initiation of the culture, increase in the growth amount of the hyphae is found. […]
smiles,measurement,value
"CCCCCCCC/C=C\CCCCCCCC(=O)OCCOCC(OCCO)C1OCC(OCCO)C1OCCO (stereo not shown) [Tween 80, Polyoxyethylene (20) Sorbitan Monooleate]",growth of Matsutake hyphae (amount of ergosterol),significantly enhanced
